Key:
Nitric oxide synthase 1 = Nitric oxide synthase 1 (Rattus norvegicus, UniProt P29476); assay type: tissue-based, Cerebellum; also: in other assays of this panel Not Active means under 50% inhibition at 10 µM
Carbonic anhydrase 2 = Carbonic anhydrase 2 (Homo sapiens, UniProt P00918); experiment: DRUGMATRIX: Carbonic Anhydrase II enzyme inhibition (substrate: 4-Nitrophenyl acetate (4-NPA)); assay type: tissue-based, Erythrocyte; settings: erythrocyte; Not Active = under 50% inhibition at 10 µM
Glucocorticoid receptor = biological target: T1, Glucocorticoid receptor (Homo sapiens, UniProt P04150); settings: hela s3; also: in other assays of this panel Not Active means under 50% inhibition at 10 µM
T1 sequence (P04150 whole entry): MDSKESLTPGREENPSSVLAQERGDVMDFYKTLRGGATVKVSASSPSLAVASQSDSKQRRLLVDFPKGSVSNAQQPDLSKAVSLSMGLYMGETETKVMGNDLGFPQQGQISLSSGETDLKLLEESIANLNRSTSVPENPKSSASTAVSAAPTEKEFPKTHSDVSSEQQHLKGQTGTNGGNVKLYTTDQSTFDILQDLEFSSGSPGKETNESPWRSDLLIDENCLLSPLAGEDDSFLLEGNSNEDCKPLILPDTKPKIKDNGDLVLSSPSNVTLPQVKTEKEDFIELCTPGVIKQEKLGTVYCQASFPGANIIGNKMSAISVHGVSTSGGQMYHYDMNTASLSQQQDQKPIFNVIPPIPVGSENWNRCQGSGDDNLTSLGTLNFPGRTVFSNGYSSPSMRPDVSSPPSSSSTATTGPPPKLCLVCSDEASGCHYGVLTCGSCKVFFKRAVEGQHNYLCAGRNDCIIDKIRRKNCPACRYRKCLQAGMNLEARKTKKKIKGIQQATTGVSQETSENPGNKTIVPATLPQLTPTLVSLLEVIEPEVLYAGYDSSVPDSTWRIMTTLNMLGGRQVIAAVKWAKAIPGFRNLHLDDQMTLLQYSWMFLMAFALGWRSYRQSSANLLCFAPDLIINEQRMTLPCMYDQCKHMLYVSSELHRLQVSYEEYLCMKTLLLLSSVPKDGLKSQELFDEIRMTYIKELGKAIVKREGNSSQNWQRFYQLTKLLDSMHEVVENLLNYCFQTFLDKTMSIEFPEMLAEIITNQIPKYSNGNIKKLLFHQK

[1] = biological target: T2, Muscarinic acetylcholine receptor M5 (Homo sapiens, UniProt P08912); assay type: cell membranes, CHO-K1, Membrane; also: in other assays of this panel Not Active means under 50% inhibition at 10 µM
T2 sequence (P08912 whole entry): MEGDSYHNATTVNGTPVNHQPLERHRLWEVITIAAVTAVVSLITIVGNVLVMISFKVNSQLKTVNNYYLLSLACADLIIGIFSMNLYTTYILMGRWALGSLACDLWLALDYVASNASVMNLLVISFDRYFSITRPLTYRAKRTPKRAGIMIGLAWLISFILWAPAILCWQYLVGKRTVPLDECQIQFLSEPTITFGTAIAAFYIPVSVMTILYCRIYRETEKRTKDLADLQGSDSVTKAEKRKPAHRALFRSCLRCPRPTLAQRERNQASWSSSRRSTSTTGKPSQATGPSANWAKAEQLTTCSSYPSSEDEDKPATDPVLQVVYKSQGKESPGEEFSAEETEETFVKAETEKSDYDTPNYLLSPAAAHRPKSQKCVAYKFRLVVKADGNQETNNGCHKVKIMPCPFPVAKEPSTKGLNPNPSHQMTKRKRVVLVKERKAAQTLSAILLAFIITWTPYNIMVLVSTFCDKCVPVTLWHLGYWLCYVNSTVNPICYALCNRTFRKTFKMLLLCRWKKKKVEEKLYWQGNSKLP

Cytochrome P450 2C9 = Cytochrome P450 2C9 (Homo sapiens, UniProt P11712); settings: bti-tn-5b1-4; also: in other assays of this panel Not Active means under 50% inhibition at 10 µM
[2] = biological target: 5-hydroxytryptamine receptor 1B (Rattus norvegicus, UniProt P28564); assay type: cell membranes, Wistar, Cerebral cortex, Membrane; settings: for Ki: read-out: Ki
[3] = biological target: T3, Type-2 angiotensin II receptor (Homo sapiens, UniProt P50052); assay type: cell-based; settings: cho-k1; also: in other assays of this panel Not Active means under 50% inhibition at 10 µM
T3 sequence (P50052 whole entry): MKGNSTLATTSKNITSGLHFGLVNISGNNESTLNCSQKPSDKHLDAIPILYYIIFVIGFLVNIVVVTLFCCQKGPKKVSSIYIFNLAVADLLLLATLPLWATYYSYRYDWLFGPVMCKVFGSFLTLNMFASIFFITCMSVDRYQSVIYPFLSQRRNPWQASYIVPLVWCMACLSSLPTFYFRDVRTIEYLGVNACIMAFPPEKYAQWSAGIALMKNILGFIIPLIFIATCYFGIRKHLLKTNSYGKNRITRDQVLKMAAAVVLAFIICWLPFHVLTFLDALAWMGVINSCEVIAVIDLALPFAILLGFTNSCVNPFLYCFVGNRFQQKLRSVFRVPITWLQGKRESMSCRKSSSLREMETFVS

[4] = biological target: T4, Alpha-2C adrenergic receptor (Homo sapiens, UniProt P18825); experiment: DRUGMATRIX: Adrenergic Alpha-2C radioligand binding (ligand: [3H] MK-912); assay type: cell membranes, Sf9, Membrane
T4 sequence (P18825 whole entry): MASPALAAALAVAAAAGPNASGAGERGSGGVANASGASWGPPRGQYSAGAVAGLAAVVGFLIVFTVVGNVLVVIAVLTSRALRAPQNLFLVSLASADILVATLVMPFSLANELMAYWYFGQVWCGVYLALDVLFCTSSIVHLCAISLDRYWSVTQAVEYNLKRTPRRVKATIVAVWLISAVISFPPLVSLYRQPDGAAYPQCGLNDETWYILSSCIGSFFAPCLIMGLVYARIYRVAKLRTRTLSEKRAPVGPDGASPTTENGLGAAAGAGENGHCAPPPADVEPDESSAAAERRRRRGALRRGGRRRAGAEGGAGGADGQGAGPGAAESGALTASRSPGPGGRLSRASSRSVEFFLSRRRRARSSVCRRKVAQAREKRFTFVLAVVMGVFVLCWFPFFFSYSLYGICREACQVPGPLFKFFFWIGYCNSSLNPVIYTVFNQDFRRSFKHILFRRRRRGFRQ

Mu-type opioid receptor = Mu-type opioid receptor (Homo sapiens, UniProt P35372); experiment: DRUGMATRIX: Opiate mu (OP3, MOP) radioligand binding (ligand: [3H] Diprenorphine); assay type: cell membranes, CHO-K1, Membrane; settings: cho-k1; Not Active = under 50% inhibition at 10 µM
Glycine receptor = Glycine receptor (Rattus norvegicus, UniProt P22771+P24524+P07727+P20781); assay type: cell membranes, Wistar, Spinal cord, Membrane; also: in other assays of this panel Not Active means under 50% inhibition at 10 µM

Chain of Nitric oxide synthase 1 (P29476 whole entry): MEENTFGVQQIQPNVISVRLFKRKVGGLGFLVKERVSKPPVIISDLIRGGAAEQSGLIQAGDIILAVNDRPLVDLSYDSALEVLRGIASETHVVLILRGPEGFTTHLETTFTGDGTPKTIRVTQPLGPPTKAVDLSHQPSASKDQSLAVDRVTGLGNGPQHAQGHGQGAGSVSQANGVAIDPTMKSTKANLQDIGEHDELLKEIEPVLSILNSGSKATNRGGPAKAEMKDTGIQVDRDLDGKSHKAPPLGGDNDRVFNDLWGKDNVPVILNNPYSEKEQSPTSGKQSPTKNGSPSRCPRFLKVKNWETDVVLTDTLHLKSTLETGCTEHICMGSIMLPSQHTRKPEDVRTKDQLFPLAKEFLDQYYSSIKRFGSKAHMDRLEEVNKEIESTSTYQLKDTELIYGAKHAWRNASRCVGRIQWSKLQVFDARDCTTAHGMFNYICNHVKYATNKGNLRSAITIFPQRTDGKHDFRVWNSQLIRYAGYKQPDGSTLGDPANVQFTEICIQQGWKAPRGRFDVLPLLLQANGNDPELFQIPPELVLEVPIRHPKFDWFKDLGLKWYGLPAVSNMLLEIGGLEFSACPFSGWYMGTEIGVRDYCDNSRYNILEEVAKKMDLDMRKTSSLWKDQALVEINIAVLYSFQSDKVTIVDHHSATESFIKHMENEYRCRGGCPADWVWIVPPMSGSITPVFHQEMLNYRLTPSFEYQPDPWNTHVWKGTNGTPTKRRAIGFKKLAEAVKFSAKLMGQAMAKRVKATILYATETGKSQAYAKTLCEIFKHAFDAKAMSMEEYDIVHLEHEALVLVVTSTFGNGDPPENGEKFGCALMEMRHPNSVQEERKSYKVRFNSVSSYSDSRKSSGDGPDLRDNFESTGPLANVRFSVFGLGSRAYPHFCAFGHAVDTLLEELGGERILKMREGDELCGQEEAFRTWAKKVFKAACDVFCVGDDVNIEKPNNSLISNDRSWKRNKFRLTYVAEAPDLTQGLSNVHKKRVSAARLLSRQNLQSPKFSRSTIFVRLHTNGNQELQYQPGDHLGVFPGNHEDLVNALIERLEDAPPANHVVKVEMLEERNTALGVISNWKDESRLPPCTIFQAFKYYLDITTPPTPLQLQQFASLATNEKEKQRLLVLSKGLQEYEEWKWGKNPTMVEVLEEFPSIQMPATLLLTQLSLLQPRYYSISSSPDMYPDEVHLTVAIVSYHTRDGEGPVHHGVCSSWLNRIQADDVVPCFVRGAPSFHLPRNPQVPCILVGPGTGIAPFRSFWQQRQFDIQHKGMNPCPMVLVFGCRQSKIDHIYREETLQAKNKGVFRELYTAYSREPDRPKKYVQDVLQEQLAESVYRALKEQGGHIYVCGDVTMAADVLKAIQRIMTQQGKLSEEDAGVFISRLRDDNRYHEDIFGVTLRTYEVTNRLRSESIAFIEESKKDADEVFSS
Chain of 5-hydroxytryptamine receptor 1B (P28564 whole entry): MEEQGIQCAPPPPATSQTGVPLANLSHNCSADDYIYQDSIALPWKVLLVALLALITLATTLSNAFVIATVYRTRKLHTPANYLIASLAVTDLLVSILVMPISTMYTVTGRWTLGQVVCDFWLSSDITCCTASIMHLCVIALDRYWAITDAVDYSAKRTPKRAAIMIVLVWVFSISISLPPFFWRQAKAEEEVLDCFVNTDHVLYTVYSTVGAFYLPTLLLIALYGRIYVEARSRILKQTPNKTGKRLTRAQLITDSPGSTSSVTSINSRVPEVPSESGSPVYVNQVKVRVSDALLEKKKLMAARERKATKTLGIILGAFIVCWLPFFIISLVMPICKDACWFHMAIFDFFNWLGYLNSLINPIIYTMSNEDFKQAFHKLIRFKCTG
Chain of Mu-type opioid receptor (P35372 whole entry): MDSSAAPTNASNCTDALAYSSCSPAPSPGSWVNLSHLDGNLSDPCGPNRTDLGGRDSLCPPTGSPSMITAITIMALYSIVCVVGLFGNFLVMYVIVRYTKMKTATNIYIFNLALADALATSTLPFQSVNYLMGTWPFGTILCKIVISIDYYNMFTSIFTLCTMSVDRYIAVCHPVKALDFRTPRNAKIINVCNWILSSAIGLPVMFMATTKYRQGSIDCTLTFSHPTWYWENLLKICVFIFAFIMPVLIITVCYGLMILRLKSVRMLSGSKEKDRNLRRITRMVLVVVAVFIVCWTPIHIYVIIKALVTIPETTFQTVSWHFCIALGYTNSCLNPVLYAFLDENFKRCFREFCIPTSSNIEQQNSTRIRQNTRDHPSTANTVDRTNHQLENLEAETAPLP
Chain of Cytochrome P450 2C9 (P11712 whole entry): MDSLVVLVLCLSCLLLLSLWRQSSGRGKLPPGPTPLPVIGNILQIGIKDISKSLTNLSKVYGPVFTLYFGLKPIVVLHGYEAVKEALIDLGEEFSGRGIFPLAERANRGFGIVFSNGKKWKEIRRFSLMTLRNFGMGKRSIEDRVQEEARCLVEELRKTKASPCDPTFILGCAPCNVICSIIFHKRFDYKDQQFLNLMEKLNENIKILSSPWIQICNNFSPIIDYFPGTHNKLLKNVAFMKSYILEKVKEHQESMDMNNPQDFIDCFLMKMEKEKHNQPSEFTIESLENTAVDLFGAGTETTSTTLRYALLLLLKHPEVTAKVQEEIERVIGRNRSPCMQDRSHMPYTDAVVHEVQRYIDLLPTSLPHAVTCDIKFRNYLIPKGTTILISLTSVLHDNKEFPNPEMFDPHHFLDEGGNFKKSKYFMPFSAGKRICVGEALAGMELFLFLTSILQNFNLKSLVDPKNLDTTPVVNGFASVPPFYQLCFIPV

SMILES | IC50 (Nitric oxide synthase 1) | IC50 (Carbonic anhydrase 2) | IC50 (Glucocorticoid receptor) | IC50 ([1]; cho-k1) | IC50 (Cytochrome P450 2C9) | Ki (Cytochrome P450 2C9) | IC50 [2] | IC50 [3] | IC50 ([4]; sf9) | IC50 (Mu-type opioid receptor) | IC50 (Glycine receptor) | IC50 ([1]; read-out: IC50) | Ki ([1]; read-out: Ki) | IC50 ([2]; read-out: IC50) | Ki [2] | IC50 ([4]; read-out: IC50) | Ki ([4]; read-out: Ki)
Cc1cc(C)nc(NS(=O)(=O)c2ccc(N)cc2)n1 [SULFAMETHAZINE] | Not Active | Not Active | Not Active | Not Active | Not Active | Not Active | Not Active | Not Active | Not Active | Not Active | Not Active | – | – | – | – | – | –
CN1CCC(=C2c3ccccc3C=Cc3ccccc32)CC1 [CYPROHEPTADINE] | Not Active | Not Active | Not Active | – | Not Active | Not Active | – | Not Active | – | Not Active | Not Active | 0.00383 µM | 0.00275 µM | 2.78 µM | 1.26 µM | 1.27 µM | 0.185 µM
CNC(=C[N+](=O)[O-])NCCSCc1ccc(CN(C)C)o1 [RANITIDINE] | Not Active | Not Active | Not Active | Not Active | Not Active | Not Active | Not Active | Not Active | Not Active | Not Active | Not Active | – | – | – | – | – | –
CC(=O)N1CCN(c2ccc(OCC3COC(Cn4ccnc4)(c4ccc(Cl)cc4Cl)O3)cc2)CC1 (centres undefined) [KETOCONAZOLE] | Not Active | Not Active | Not Active | Not Active | Not Active | Not Active | – | Not Active | Not Active | Not Active | Not Active | – | – | 13.5 µM | 6.15 µM | – | –
CC(C)CC(N(C)C)C1(c2ccc(Cl)cc2)CCC1 (centres undefined) [SIBUTRAMINE] | Not Active | Not Active | Not Active | Not Active | Not Active | Not Active | Not Active | Not Active | Not Active | Not Active | Not Active | – | – | – | – | – | –
Cc1onc(-c2ccccc2)c1-c1ccc(S(N)(=O)=O)cc1 [VALDECOXIB] | Not Active | – | Not Active | Not Active | Not Active | Not Active | Not Active | Not Active | Not Active | Not Active | Not Active | – | – | – | – | – | –
CC/C(=C(/CC)c1ccc(O)cc1)c1ccc(O)cc1 [DIETHYLSTILBESTROL] | Not Active | Not Active | – | – | Not Active | Not Active | Not Active | Not Active | – | – | Not Active | – | – | – | – | – | –
C[C@]1(Cn2ccnn2)[C@H](C(=O)O)N2C(=O)C[C@H]2S1(=O)=O [TAZOBACTAM] | Not Active | Not Active | Not Active | Not Active | Not Active | Not Active | Not Active | Not Active | Not Active | Not Active | Not Active | – | – | – | – | – | –
COCCOC(=O)C1=C(C)NC(C)=C(C(=O)OC(C)C)C1c1cccc([N+](=O)[O-])c1 (centres undefined) [NIMODIPINE] | Not Active | Not Active | Not Active | Not Active | – | – | Not Active | Not Active | Not Active | Not Active | Not Active | – | – | – | – | – | –
C=CCN1CC[C@]23c4c5ccc(O)c4O[C@H]2C(=O)CC[C@@]3(O)[C@H]1C5 [NALOXONE] | Not Active | Not Active | – | Not Active | – | – | Not Active | Not Active | Not Active | – | Not Active | – | – | – | – | – | –
COc1cc(NS(=O)(=O)c2ccc(N)cc2)nc(OC)n1 [SULFADIMETHOXINE] | Not Active | Not Active | Not Active | Not Active | – | – | Not Active | Not Active | Not Active | Not Active | Not Active | – | – | – | – | – | –
CC(C)NCC(O)COc1cccc2ccccc12 (centres undefined) [PROPRANOLOL] | Not Active | Not Active | – | Not Active | Not Active | Not Active | Not Active | Not Active | Not Active | Not Active | Not Active | – | – | – | – | – | –
CC(C)c1nc(CN(C)C(=O)N[C@H](C(=O)N[C@@H](Cc2ccccc2)C[C@H](O)[C@H](Cc2ccccc2)NC(=O)OCc2cncs2)C(C)C)cs1 [RITONAVIR] | Not Active | Not Active | Not Active | Not Active | – | – | Not Active | Not Active | Not Active | – | Not Active | – | – | – | – | – | –
Clc1ccc2c(c1)C(N1CCNCC1)=Nc1ccccc1O2 [AMOXAPINE] | Not Active | Not Active | Not Active | – | Not Active | Not Active | Not Active | Not Active | – | Not Active | Not Active | – | – | – | – | – | –
CC(=O)CC(c1ccccc1)c1c(O)c2ccccc2oc1=O (centres undefined) [WARFARIN] | Not Active | Not Active | – | Not Active | Not Active | Not Active | Not Active | Not Active | Not Active | – | Not Active | – | – | – | – | – | –
CC(C)(C)c1ccc(C(O)CCCN2CCC(C(O)(c3ccccc3)c3ccccc3)CC2)cc1 (centres undefined) [TERFENADINE] | Not Active | Not Active | Not Active | Not Active | – | – | Not Active | Not Active | – | Not Active | Not Active | – | – | – | – | – | –
O=C(c1ccc(OCCN2CCCCC2)cc1)c1c(-c2ccc(O)cc2)sc2cc(O)ccc12 [RALOXIFENE] | Not Active | Not Active | Not Active | Not Active | – | – | – | Not Active | – | – | Not Active | – | – | 1.86 µM | 0.846 µM | – | –
COc1cc2c(c(OC)c1OC)-c1ccc(OC)c(=O)cc1[C@@H](NC(C)=O)CC2 [COLCHICINE] | Not Active | Not Active | Not Active | Not Active | Not Active | Not Active | Not Active | Not Active | Not Active | – | Not Active | – | – | – | – | – | –

Reference: ChEMBL document CHEMBL1909046, “DrugMatrix in vitro pharmacology data”
